These results are taken from patent publication US20220387411A1, “TARGETED AUTOPHAGY CONJUGATES AND METHODS” (Frontier Medicines Corporation, priority 2019, published 2022).

SMILES strings stand for the structures.

Sequence of Protein SQSTM1 (p62) (Q13501 whole entry): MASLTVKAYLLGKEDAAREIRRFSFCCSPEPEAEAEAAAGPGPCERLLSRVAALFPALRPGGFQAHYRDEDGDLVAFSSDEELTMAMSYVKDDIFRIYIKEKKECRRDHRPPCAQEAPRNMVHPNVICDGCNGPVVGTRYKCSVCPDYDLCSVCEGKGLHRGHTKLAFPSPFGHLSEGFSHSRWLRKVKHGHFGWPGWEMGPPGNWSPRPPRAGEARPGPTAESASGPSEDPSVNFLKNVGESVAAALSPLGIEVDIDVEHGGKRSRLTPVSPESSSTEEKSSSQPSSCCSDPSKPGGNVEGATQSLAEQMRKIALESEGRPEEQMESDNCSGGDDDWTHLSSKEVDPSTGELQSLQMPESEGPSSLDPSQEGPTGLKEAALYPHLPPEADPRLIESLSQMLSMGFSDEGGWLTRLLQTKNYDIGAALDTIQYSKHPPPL

One test addresses Protein SQSTM1 (p62) (Homo sapiens, UniProt Q13501). Kind of test: Dose response of Compound 1 and Compound 19 against SQSTM1 (TAMRA fluorescence). The format is binding. Conditions: pre-incubated at 2, 0.5, 0.125 and 0.03 μM, then reactive probe TAMRA; FIG. 1. As to the method:
Protein SQSTM1 (p62) was pre-incubated with either Compound 1 or Compound 19 at concentrations of 2, 0.5, 0.125, and 0.03 μM, followed by addition of the reactive probe 5-carboxytetramethylrhodamine (TAMRA). Measurements were made using TAMRA fluorescence. Silver staining of the protein was used as a protein loading control. Decreasing fluorescence of TAMRA indicates binding of the test compound.
On to `O=C(CCl)N1CCCCC(F)(F)C1` [Compound 19, 2-chloro-1-(3,3-difluoroazepan-1-yl)ethanone], for which the “binding to SQSTM1 (decreasing TAMRA fluorescence)” value is given as “covalently bind to SQSTM1”.
Still for that read-out and setting: to `COc1ccc(CN(C(=O)CCl)c2nccs2)c(OC)c1` [Compound 1, 2-chloro-N-(2,4-dimethoxybenzyl)-N-(thiazol-2-yl)acetamide] belongs “covalently bind to SQSTM1”.

The next test deals with T1, Recombinant pure human SQSTM1 protein (Homo sapiens, UniProt Q13501).
T1 construct: purchased Origene
T1 sequence (Q13501 whole entry): as above
The test is described as follows: Inhibition of IA-Rhodamine labeling of SQSTM1 (gel-based, densitometry). The format is binding. Conditions: 50 μM of test compound (initial screen); 30 min at 37° C., then 100 nM IA-Rhodamine 1 hour; inhibition of target labeling by densitometry. On the procedure:
Recombinant pure human SQSTM1 protein was purchased from Origene. SQSTM1 protein (0.21 μg) was diluted into 50 μL of PBS and 1 μL of either DMSO (vehicle) or covalently acting small molecule (test compound) to achieve the desired concentration. After 30 min. at 37° C., the samples were treated with 100 nM IA-Rhodamine (tetramethylrhodamine-5-iodoacetamide dihydroiodide; Setareh Biotech, 6222, prepared in anhydrous DMSO) for 1 hour at room temperature. Samples were then diluted with 20 μL of 4× reducing Laemmli SDS sample loading buffer (Alfa Aesar) and heated at 90° C. for 5 min. The samples were separated on precast 4-20% Criterion TGX gels (Bio-Rad Laboratories, Inc.). Fluorescent imaging was performed on a ChemiDoc MP instrument (Bio-Rad Laboratories, Inc.), and inhibition of target labeling was assessed by densitometry using ImageJ software. The initial screen was performed using 50 μM of test compound.
In the case of `O=C(CCl)N1CCCC(O)(C(F)(F)F)CC1` (centres unmarked) [Compound 33, 2-chloro-1-(4-hydroxy-4-(trifluoromethyl)azepan-1-yl)ethanone], the inhibition at 50 µM stood at 32%.
The same measure, in the same setting: to `CC1CCN(C(=O)CCl)CCC1=O` (centres unmarked) [Compound 42, 1-(2-chloroacetyl)-5-methylazepan-4-one] belongs 32%; to `O=C(CCl)N1CCCCC(F)(F)C1` [Compound 19, 2-chloro-1-(3,3-difluoroazepan-1-yl)ethanone], 83%.
Still for that read-out and setting: to `O=C(CCl)N1CCCC(F)CC1` (centres unmarked) [Compound 20, 2-chloro-1-(4-fluoroazepan-1-yl)ethanone] belongs 9%; to `O=C(NC1CCCN(C(=O)CCl)CC1)OCc1ccccc1` (centres unmarked) [Compound 46, Benzyl (1-(2-chloroacetyl)azepan-4-yl)carbamate], 31%.
On the same count and under the same terms, to `O=C(NCC1CCCCN(C(=O)CCl)C1)OCc1ccccc1` (centres unmarked) [Compound 27, Benzyl ((1-(2-chloroacetyl)azepan-3-yl)methyl)carbamate] belongs 58%; to `CC(C)(C)OC(=O)N1CCCCC2(CCCCN(C(=O)CCl)C2)C1` (centres unmarked) [Compound 58, Tert-butyl 9-(2-chloroacetyl)-2,9-diazaspiro[6.6]tridecane-2-carboxylate], 82%.
Turning to `O=C(CCl)N1CCC(O)C(F)CC1` (centres unmarked) [Compound 48, 2-chloro-1-(4-fluoro-5-hydroxyazepan-1-yl)ethanone], the inhibition at 50 µM came to 7%.
Still for that read-out and setting: to `O=C(CCl)N(C1CCNCC1)C1CC1` [Compound 62, 2-chloro-N-cyclopropyl-N-(4-piperidyl)acetamide] belongs 27%.
Turning to `CCOC(=O)c1cnc2n1CCN(C(=O)CCl)CC2` [Compound 54, Ethyl 7-(2-chloroacetyl)-6,7,8,9-tetrahydro-5H-imidazo[1,2-d][1,4]diazepine-3-carboxylate], the inhibition at 50 µM is 46%.
Same read-out and setting: to `CC(C)(C)OC(=O)N1CCCC12CCCN(C(=O)CCl)CC2` (centres unmarked) [Compound 57, Tert-butyl 8-(2-chloroacetyl)-1,8-diazaspiro[4.6]undecane-1-carboxylate] belongs 58%.
With `CC1(F)CCCN(C(=O)CCl)CC1` (centres unmarked) [Compound 36, 2-chloro-1-(4-fluoro-4-methylazepan-1-yl)ethanone], the inhibition at 50 µM turned out to be 34%.
Same read-out and setting: to `CC1CCCCN(C(=O)CCl)C1` (centres unmarked) [Compound 31, 2-chloro-1-(3-methylazepan-1-yl)ethanone] belongs 39%.
Still for that read-out and setting: to `CCOC(=O)c1ncn2c1CN(C(=O)CCl)CCC2` [Compound 53, Ethyl 8-(2-chloroacetyl)-6,7,8,9-tetrahydro-5H-imidazo[1,5-a][1,4]diazepine-1-carboxylate] belongs 52%.
Same read-out and setting: to `COC(=O)c1ccc(CN(C(=O)CCl)C2CCN(C(=O)OC(C)(C)C)CC2)[nH]1` [Compound 9, Tert-butyl 4-(2-chloro-N-((5-(methoxycarbonyl)-1H-pyrrol-2-yl)methyl)acetamido) piperidine-1-carboxylate] belongs 64%; to `CC1(O)CCCN(C(=O)CCl)CC1` (centres unmarked) [Compound 49, 2-chloro-1-(4-hydroxy-4-methylazepan-1-yl)ethanone], 9%.
For the compound `O=C(CCl)N(Cc1ccccc1)[C@H]1COC[C@@H]1O` [Compound 10, N-benzyl-2-chloro-N-[(3S,4R)-4-hydroxytetrahydrofuran-3-yl]acetamide], the inhibition at 50 µM is 17%.
The same measure, in the same setting: to `O=C(CCl)N1CCCS(=O)(=O)CC1` [Compound 52, 2-chloro-1-(1,1-dioxido-1,4-thiazepan-4-yl)ethanone] belongs 40%.
As for `COc1ccc(CN(C(=O)CCl)c2nccs2)c(OC)c1` [Compound 1, 2-chloro-N-(2,4-dimethoxybenzyl)-N-(thiazol-2-yl)acetamide], the inhibition at 50 µM was 79%.
The same measure, in the same setting: to `CC1CCCN(C(=O)CCl)CC1` (centres unmarked) [Compound 21, 2-chloro-1-(4-methylazepan-1-yl)ethanone] belongs 11%.
On to `CC1CCN(C(=O)CCl)CCC1(F)F` (centres unmarked) [Compound 40, 2-chloro-1-(4,4-difluoro-5-methylazepan-1-yl)ethanone], for which the “% inhibition” value was “not active”.
On to `O=C(CCl)N(Cc1ccccc1)C1CCCC[C@H]1CO` (stereo in doubt) [Compound 3, N-benzyl-2-chloro-N-(cis-2-(hydroxymethyl)cyclohexyl)acetamide], for which the inhibition at 50 µM came out at 58%.
For `CC(C)(C)OC(=O)N1CC2CC1CN(C(=O)CCl)C2` (centres unmarked) [Compound 61, Tert-butyl 3-(2-chloroacetyl)-3,6-diazabicyclo[3.2.1]octane-6-carboxylate], the inhibition at 50 µM stood at 18%.
Still for that read-out and setting: to `CC1(CNC(=O)OCc2ccccc2)CCCN(C(=O)CCl)CC1` (centres unmarked) [Compound 35, Benzyl ((1-(2-chloroacetyl)-4-methylazepan-4-yl)methyl)carbamate] belongs 17%.

As a reminder, the inhibition is the drop in the measured response relative to a control, in per cent.
